Laboratory results reported in EP0705816B1, “BENZENE DERIVATIVE USEFUL FOR ISCHEMIC DISEASES” (Chugai Seiyaku Kabushiki Kaisha, priority 1993, dated 1995).
Like-named read-outs stand apart in the source and are kept apart here.

What was measured:
ventricular myocytes [1] = assay: Inhibitory action on calcium overload in vitro, Method B: veratridine-treated myocytes; type: cell-based, male Sprague-Dawley rat; conditions: 50 µg/ml of veratridine, read-out: Concentration at Which Cells Survived Almost Completely
Protocol: (§1) Incubated ventricular myocytes were prepared from the heart of male Sprague-Dawley rat weighing 300 to 500 g, using an enzyme-perfusion method. […]
The efficacy was evaluated in the same manner as in Method A, except for using 50 µg/ml of veratridine in place of veratrine (100 µg/ml).

rabbit LDL [2] = assay: Inhibitory action on lipid peroxidation in vitro, Method B: CuSO4 oxidation of LDL, TBARS by fluorometry; type: biochemical; conditions: 1 x 10^-5 M, CuSO4 1 µM, 37°C, 24 hours, 10 µM
Protocol: A test compound was added to rabbit LDL prepared according to the method of Havel, et al. (Havel RJ, et al., J. Clin. Invest., 34, 1345 (1955)), and then CuSO4 was added to a final concentration of 1 µM. Oxidation of LDL was performed by shaking at 37°C for 24 hours. The generated TBARS was measured by the method of Yagi utilizing fluorometry (Yagi, K., Biochem. Med., 15, 212 (1976)).

rabbit LDL [3] = assay: Inhibitory action on lipid peroxidation in vitro, Method A: oxidation of LDL by soybean lipoxygenase, fluorescence of the LDL fraction; type: biochemical; conditions: fluorescence intensity of LDL fraction, SLO 40 µg/ml, 37°C, 24 hours
Protocol: A test compound was added to rabbit LDL prepared according to the method of Havel, et al. (Havel RJ et al., J. Clin. Invest., 34, 1345 (1955)), and then a soybean lipoxygenase type-IS (SLO) was added to a final concentration of 40 µg/ml. Oxydation of LDL was carried out by incubating at 37°C in a CO2 incubator for 24 hours. The oxidized LDL solution was analyzed by gel-permeation chromatography, and the fluorescence intensity of the LDL fraction was measured at an excitation wavelength of 360 nm and an emission wavelength of 430 nm.

ventricular myocytes [4] = assay: Inhibitory action on calcium overload in vitro, Method A: veratrine-treated myocytes; type: cell-based, male Sprague-Dawley rat; design: key: ++: The cells survived almost completely at 10^-7 M.; The cells died almost completely at 10 M^-8 M; conditions: compound 30 minutes, then 100 µg/ml of veratrine; shape of cells observed five minutes later
Protocol: as §1

[5] = Rattus norvegicus, Ventricular myocyte

Structure (SMILES)	% of Control (rabbit LDL [2]) [%]	Percent (%) of Control (rabbit LDL [3]; 5 x 10^-7 M, 0.5 µM) [%]	Survival Rate of Cells (ventricular myocytes [4])	Percent (%) of Control (rabbit LDL [3]; 5 x 10^-6 M) [%]	other results
C[C@H]1S[C@H](c2cc(C(C)(C)C)c(O)c(C(C)(C)C)c2)N(CCCN(C)CCOc2ccc3c(c2)OCO3)C1=O (relative stereo) [Compound (72), 2,5-Trans-2-(3,5-di-tert-butyl-4-hydroxyphenyl)-3-[3-[N-methyl-[2-(3,4-methylenedioxyphenoxy)ethyl]amino]propyl]-5-methyl-1,3-thiazolidin-4-one]					minimal effective concentration (ventricular myocytes [1]; [5]): 0.32 µM
CN(CCCN1C(=O)CSC1c1cc(C(C)(C)C)c(O)c(C(C)(C)C)c1)CCOc1ccc2c(c1)OCO2 (single isomer, unassigned; (+)) [Compound (70), (+)-2-(3,5-Di-tert-butyl-4-hydroxyphenyl)-3-[3-[N-methyl-N-[2-(3,4-methylenedioxyphenoxy)ethyl]amino]propyl]-1,3-thiazolidin-4-one]	21.1	15.2			Percent (%) of Control (rabbit LDL [3]; 5 x 10^-6 M, 5 µM): 5.1%
CC1SC(c2cc(C(C)(C)C)c(O)c(C(C)(C)C)c2)N(CCCN(C)CCOc2ccc3c(c2)OCO3)C1=O (single isomer, unassigned; (+)) [Compound (74), (+)-2,5-Cis-2-(3,5-di-tert-butyl-4-hydroxyphenyl)-3-[3-[N-methyl-N-[2-(3,4-methylenedioxyphenoxy)ethyl]amino]propyl]-5-methyl-1,3-thiazolidin-4-one]					minimal effective concentration (ventricular myocytes [1]; [5]): 0.32 µM
CN(CCCN1C(=O)CSC1c1cc(C(C)(C)C)c(O)c(C(C)(C)C)c1)CCOc1ccc2c(c1)OCO2 (single isomer, unassigned; (-)) [Compound (71), (-)-2-(3,5-Di-tert-butyl-4-hydroxyphenyl)-3-[3-[N-methyl-N-[2-(3,4-methylenedioxyphenoxy)ethyl]amino]propyl]-1,3-thiazolidin-4-one]	23.8	12.7			Percent (%) of Control (rabbit LDL [3]; 5 x 10^-6 M, 5 µM): 2.8%
CC1SC(c2cc(C(C)(C)C)c(O)c(C(C)(C)C)c2)N(CCCN(C)CCOc2ccc3c(c2)OCO3)C1=O (single isomer, unassigned; (-)) [Compound (75), (-)-2,5-Cis-2-(3,5-di-tert-butyl-4-hydroxyphenyl)-3-[3-[N-methyl-N-[2-(3,4-methylenedioxyphenoxy)ethyl]amino]propyl]-5-methyl-1,3-thiazolidin-4-one]					minimal effective concentration (ventricular myocytes [1]): 0.32 µM
CN(CCCCN1C(=O)CSC1c1cc(C(C)(C)C)c(O)c(C(C)(C)C)c1)CCOc1ccc2c(c1)OCO2 (centres unmarked) [Compound (8)]			++		
CN(CCCCCN1C(=O)CSC1c1cc(C(C)(C)C)c(O)c(C(C)(C)C)c1)CCOc1ccc2c(c1)OCO2 (centres unmarked) [Compound (9)]	26.4	13.5	++	5.9	
CCN(CCCN1C(=O)CSC1c1cc(C(C)(C)C)c(O)c(C(C)(C)C)c1)CCOc1ccc2c(c1)OCO2 (centres unmarked) [Compound (12)]	25.9	16.8	++	6.4	
CN(CCCOc1ccc2c(c1)OCO2)CCCN1C(=O)CSC1c1cc(C(C)(C)C)c(O)c(C(C)(C)C)c1 (centres unmarked) [Compound (17)]	21.0	16.4		3.9	minimal effective concentration (ventricular myocytes [1]; [5]): 0.32 µM
COc1ccc(CCN(C)CCCN2C(=O)CSC2c2cc(C(C)(C)C)c(O)c(C(C)(C)C)c2)cc1OC (centres unmarked) [Compound (20)]	21.3	8.7	+	0.6	
CN(CCCN1C(=O)CSC1c1cc(C(C)(C)C)c(O)c(C(C)(C)C)c1)CCOc1ccc2c(c1)OCO2 (centres unmarked) [Compound (26), 2-(3,5-Di-tert-butyl-4-hydroxyphenyl)-3-[3-[N-methyl-N-[2-(3,4-methylenedioxyphenoxy)ethyl]amino]propyl]-1,3-thiazolidin-4-one]			++		
CC(C)(C)c1cc(C2SCC(=O)N2CCCN2CCC(Oc3ccc4c(c3)OCO4)CC2)cc(C(C)(C)C)c1O (centres unmarked) [Compound (34)]	20.5				minimal effective concentration (ventricular myocytes [1]; [5]): 0.32 µM
CC1SC(c2cc(C(C)(C)C)c(O)c(C(C)(C)C)c2)N(CCCN(C)CCOc2ccc3c(c2)OCO3)C1=O (centres unmarked) [Compound (41), 2-(3,5-Di-tert-butyl-4-hydroxyphenyl)-3-[3-[N-methyl-N-[2-(3,4-methylenedioxyphenoxy)ethyl]amino]propyl]-5-methyl-1,3-thiazolidin-4-one]	26.3	18.3		6.2	
CCOC(=O)CC1SC(c2cc(C(C)(C)C)c(O)c(C(C)(C)C)c2)N(CCCN(C)CCOc2ccc3c(c2)OCO3)C1=O (centres unmarked) [Compound (46), 2-(3,5-Di-tert-butyl-4-hydroxyphenyl)-3-[3-[N-methyl-N-[2-(3,4-methylenedioxyphenoxy)ethyl]amino]propyl]-5-ethoxycarbonylmethyl-1,3-thiazolidin-4-one]	20.4				
CN(CCCN1C(=O)C(CCO)SC1c1cc(C(C)(C)C)c(O)c(C(C)(C)C)c1)CCOc1ccc2c(c1)OCO2 (centres unmarked) [Compound (49), 2-(3,5-Di-tert-butyl-4-hydroxyphenyl)-3-[3-[N-methyl-N-[2-(3,4-methylenedioxyphenoxy)ethyl]amino]propyl]-5-(2-hydroxyethyl)-1,3-thiazolidin-4-one]	15.7				
CN(CCCN1C(=O)C(CC(=O)N(C)C)SC1c1cc(C(C)(C)C)c(O)c(C(C)(C)C)c1)CCOc1ccc2c(c1)OCO2 (centres unmarked) [Compound (51)]	16.6				
CN(CCCN1C(=O)C(OCCO)SC1c1cc(C(C)(C)C)c(O)c(C(C)(C)C)c1)CCOc1ccc2c(c1)OCO2 (centres unmarked) [Compound (55)]	20.0				
CN(CCCN1C(=S)CSC1c1cc(C(C)(C)C)c(O)c(C(C)(C)C)c1)CCOc1ccc2c(c1)OCO2 (centres unmarked) [Compound (57), 2-(3,5-Di-tert-butyl-4-hydroxyphenyl)-3-[3-[N-methyl-N-[2-(3,4-methylenedioxyphenoxy)ethyl]amino]propyl]-1,3-thiazolidin-4-thione]	23.0	22.8		11.3	
COc1ccc([C@@H]2Sc3ccccc3N(CCN(C)C)C(=O)[C@@H]2OC(C)=O)cc1 [Diltiazem, reference compound]	96.9	109.1	-	110.7	minimal effective concentration (ventricular myocytes [1]; Rattus norvegicus, Ventricular myocyte, symbol defined by footnote): > 1 µM
